In PMC5437200, “Ionic liquids for the passive sampling of sulfonamides from water—applicability and selectivity study” (Analytical and Bioanalytical Chemistry, 2017):

What was measured:
[1] = ionization degrees of sulfonamides in the donor solution (calculated); format: physicochemical; conditions: initial pH 5.64; calculated using equations in ref 39
[2] = octanol-water shake experiment for logKOW and logDOW; format: physicochemical; conditions: for logD: n-octanol/ultrapure water pH 5.6, room temperature, read-out: LogD OW pH 5.6 (exp); for LogK OW (exp): n-octanol/ultrapure water, room temperature
[3] = parameters: method as in PMID 22579461; conditions: cited from earlier work
[4] = stability (recovery) of ionic liquids inside the PASSIL dosimeter; format: physicochemical; conditions: PES membranes, 14-day passive sampling, 20 °C; from IL mass before and after
Procedure: Passive sampling experiments were conducted analogously to previous studies. The passive dosimeter was made of plexiglass and contained two polyethersulfone (PES) membranes with their inner sides covered with the receiving phase—ionic liquid (separately for each of the seven tested ILs) of a total mass equal to 200 mg. Nylon (Phenomenex) and Teflon (Merck) membranes were also tested. The donor phase was 100 mL of water solution with an initial sulfonamide concentration of 2 μg mL^−1. The experimental setup was kept away from light radiation and at a constant temperature (20 °C). Each extraction lasted 14 days and the samples (1 mL) of the donor solution were collected every 2 days. The solution was stirred using a magnetic stirrer (1000 rpm), which was not renewed. After the experiment, the receiving phase was dissolved using 50 mL of acetonitrile. All the obtained samples (both from the donor and receiving phases) were analyzed by HPLC with a diode-array detector (DAD, Schimadzu, 272 nm). The analysis was performed using a Gemini 5-μm C18 column (Phenomenex). The injection volume was 10 μL. The flow rate was 1.5 mL min^−1. Acetonitrile (ACN) was used as the organic component of the mobile phase, and the aqueous component was an acetate buffer (5 mmol L^−1 CH3COONH4, pH = 4) with 5% of ACN. The mobile phase gradient was applied. The recovery of the receiving phase, the extraction efficiency, and the sampling rate (for [P666-14][N(CN)2]) were calculated for each analyte according to the equations presented in [30]. Moreover, micrographs using a HITACHI S-3400N scanning electron microscope (SEM) were taken to study the morphological appearance of the membranes covered with an ionic liquid [P666-14][N(CN)2].
The basic parameter of an applied ionic liquid is its physical stability inside the homemade dosimeter expressed by the IL recovery (%) calculated from the difference between ionic liquid masses before and after the passive sampling. The highest recovery (more than 90%) of ionic liquids was achieved by phosphonium-cation-based ILs and PES membranes (Fig. 3). […]

SMILES	α2 ionization degree [1] [%]	α3 ionization degree (negatively charged form) [1] [%]	logD [2]	LogK OW (exp) [2]	pKa2 [3]	pKa3 [3]	IL recovery [4] [%]
Cc1nnc(NS(=O)(=O)c2ccc(N)cc2)s1 [SMT, sulfamethiazole]	100.0	58.0	-0.34	0.01	1.8	5.5	
CCCCCCCCCCCCCC[P+](CCCCCC)(CCCCCC)CCCCCC.O=S(=O)([N-]S(=O)(=O)C(F)(F)F)C(F)(F)F [[P666-14][TFN], trihexyl(tetradecyl)phosphonium bis(trifluoromethylsulfonyl)imide]							98.9
CCCCCCCCCCCCCC[P+](CCCCCC)(CCCCCC)CCCCCC.FC(F)(F)C(F)(F)[P-](F)(F)(F)(C(F)(F)C(F)(F)F)C(F)(F)C(F)(F)F [[P666-14][(C2F5)3PF3], trihexyl(tetradecyl)phosphonium tri(pentafluoroethyl)trifluorophosphate]							98.5
Nc1ccc(S(=O)(=O)Nc2ccc(Cl)nn2)cc1 [SCP, sulfachloropyridazine]	100.0	58.0	0	0.36	2.2	5.5	
Nc1ccc(S(=O)(=O)Nc2ncccn2)cc1 [SDZ, sulfadiazine]					1.8		
Nc1ccc(S(=O)(=O)Nc2ccccn2)cc1 [SPD, sulfapyridine]	99.9		0.04	0.04	2.4	8.2	
CCCCCCCCCCCCCC[P+](CCCCCC)(CCCCCC)CCCCCC.N#C[N-]C#N [[P666-14][N(CN)2], trihexyl(tetradecyl)phosphonium dicyanamide]							92.4
Cc1ccnc(NS(=O)(=O)c2ccc(N)cc2)n1 [SMZ, sulfamerazine]	100.0	6.5	0.16	0.19	1.8	6.8	
COc1cc(NS(=O)(=O)c2ccc(N)cc2)nc(OC)n1 [SDX, sulfadimethoxine]	99.9	35.5			2.5	5.9	
Nc1ccc(S(=O)(=O)Nc2nccs2)cc1 [STZ, sulfathiazole]	100.0	3.4	-0.17	−0.16	2.1	7.1	
